Structures can show the parent of a compound that is named as a salt.
Tests used:
[1] = test system: DEX-treated mice; assay: Forced swimming test (FST) in DEX-induced depression-like animal model; type: in vivo, ICR mice; settings: 120 mg/kg of ketamine free-base; for onset of antidepressant effect on FST: single injection; for immobility time in FST: single s.c. injection
Procedure: (§1) ICR mice were intraperitoneally injected with saline or DEX at postnatal day 1 to 3 (P1-P3) with dose decrement of 0.5 mg/kg, 0.3 mg/kg, and 0.1 mg/kg, respectively. The drugs for each group or saline were administered subcutaneously at postnatal day 35, P35 (i.e., dosing day 0, D0), and forced swimming test (FST) was conducted on dosing day 1 (D1, P36) and dosing day 10 (P45) after drug administration. Evaluation of sedation behavior was also conducted by sedation rating scale from the time immediately post injection to dosing day 14 (P49) after drug administration.
(§2) Neonatal ICR mice (BioLASCO, Taipei, Taiwan) were intraperitoneally injected with saline or DEX on postnatal day 1, 2, and 3 (P1, P2, and P3) at doses of 0.5 mg/kg, 0.3 mg/kg, and 0.1 mg/kg, respectively. […] The dugs were then subcutaneously injected into mice of the corresponding groups at postnatal day 35, while the mice of the Control and Saline groups were injected with equal volumes of 0.9% saline. Drugs for administration were prepared in phosphate-buffered saline (PBS), and then well mixed by high speed vortex before injection.
Antidepressant effects were evaluated by forced swimming test (FST), which performed on dosing day 1 (P36) and dosing day 10 (P45) after drug administration. The mice of all groups were trained for swimming before drug administration. During the FST, mice were individually placed into 5 L glass cylinders (height 27 cm, diameter 18 cm) filled with 4 L of water (23±1° C.). The total duration of immobility time during 5 minutes of FST was observed. Results were presented as mean±SEM. Student's t-test was utilized to analyze Saline group (DEX-treated mouse group injected with saline) versus the other groups at each time point. * p<0.05, ** p<0.01, and *** p<0.001 indicate significant differences compared to the Saline group.

[2] = test system: female Sprague Dawley (SD) rats; assay: 3-month repeat-dose toxicology study; settings: for neuronal morphology in prefrontal cortex / bladder mucosal folds (histopathology) / bladder apical epithelial surfaces (histopathology): total 1440 mg/kg of ketamine free-base; for neuronal morphology in prefrontal cortex: brain slices; for bladder mucosal folds (histopathology): magnification x40; for bladder apical epithelial surfaces (histopathology): magnification x400; for injection site observation (skin surface) / injection site histopathology: inflammatory cells at higher magnification / injection site histopathology: tissue morphology: KET 60 mg/kg twice weekly, KEP 480 mg/kg monthly; for injection site histopathology: inflammatory cells at higher magnification / injection site histopathology: tissue morphology: HE staining
[3] = test system: DEX-treated mice; assay: Sedation behavior by rodent sedation rating scale; type: in vivo, ICR mice; settings: s.c., 120 mg/kg of ketamine free-base; for sedation behavior (rodent sedation rating scale): immediately post injection to 14 days
Procedure: as §1, §2
Furthermore, sedation behavior was also evaluated by rodent sedation rating scale (Table 6) immediately post drug administration to 14 days.

[4] = in vivo; cited from earlier work
[5] = test system: beagle dogs; assay: Injection site evaluation by Draize skin erythema/eschar rating scale; type: in vivo; settings: male beagle dogs, individual animals, single 44 mg/kg of ketamine free-base, Day 1, 2, 4, 8, 15
Procedure: A specific in vivo study to evaluate the injection site reaction of KEP was conducted in beagle dogs ([…] LABES, CO., LTD. Ina, Japan).

Row | Compound | onset of antidepressant effect on FST [1] | immobility time in FST ([1]; day 1 after administration) | immobility time in FST ([1]; day 10 after administration) | neuronal morphology in prefrontal cortex ([2]; 12 weeks) | bladder mucosal folds (histopathology) ([2]; 12 weeks) | bladder apical epithelial surfaces (histopathology) ([2]; 12 weeks) | pathological bladder and brain changes ([2]; high dose subchronic treatment for 12 weeks) | injection site observation (skin surface) ([2]; s.c., 12 weeks) | injection site histopathology: inflammatory cells at higher magnification ([2]; s.c., 12 weeks) | injection site histopathology: tissue morphology ([2]; s.c., 12 weeks) | maximum tolerated dose (MTD) ([2]; subcutaneous injection) | sedation behavior (rodent sedation rating scale) [3] | time to full recovery from sedation ([3]; post administration) [h] | LD50 dose [4] [mg/kg] | tolerability of single subcutaneous injection ([2]; 480 mg/kg of ketamine free-base) | density of inflammatory cells at injection site under microscopic fields ([2]; s.c., 12 weeks, KEP 480 mg/kg monthly versus KET 60 mg/kg twice weekly) | Draize skin erythema/eschar observation at injection site [5]
1 | CNC1(c2ccccc2Cl)CCCCC1=O (centres unmarked) [KET, ketamine HCl, reference compound] | rapid-onset antidepressant effects | reduced the immobility times | reduced the immobility times | granule cells were lack, and the morphology of pyramidal cells changed to be small or shrinking like in process of degradation | protrusive and enlarged mucosal folds | smooth | bladder fibrosis and neuronal morphology alteration in brain | injection site erythema, which gradually became open wound | infiltration of inflammatory cells in connective tissues | morphology damage on epidermis, dermis, subcutis, and muscle tissues | 60 mg/kg of ketamine free-base | heavy sedation-related behavior | 2 | – | – | – | –
2 | CNC1(c2ccccc2Cl)CCCCC1=O (centres unmarked) [ketamine] | – | – | – | – | – | – | – | – | – | – | – | – | – | 229 | – | – | –
3 | R, S-ketamine pamoate [KEP] | rapid-onset antidepressant effects | reduced the immobility times | reduced the immobility times | normal | thin mucosal folds | rough | – | normal skin surfaces | infiltration of inflammatory cells in connective tissues | normal morphology of skin slices | – | normal behavior | – | – | well tolerable | much less than KET group | No erythema
4 | CN[C@]1(c2ccccc2Cl)CCCCC1=O [S-KEP, S-ketamine pamoate] | rapid-onset antidepressant effects | reduced the immobility times | reduced the immobility times | – | – | – | – | – | – | – | – | normal behavior | – | – | – | – | –
5 | CN[C@@]1(c2ccccc2Cl)CCCCC1=O [R-KEP, R-ketamine pamoate] | rapid-onset antidepressant effects | reduced the immobility times | reduced the immobility times | – | – | – | – | – | – | – | – | normal behavior | – | – | – | – | –

— patent US11981617B2, “Ketamine pamoate and use thereof” (Alar Pharmaceuticals Inc., priority 2019, dated 2024)
